US20250347680A1, “METHODS OF OPTIMIZING KINASE INHIBITORS” (Brandeis University, priority 2024, published 2025)

Tests used:
[1] = test system: p38α phosphorylation in HL60 cells; test: Western blot of p38α phosphorylation in HL60 cells after TNFα or LPS stimulation; type: cell-based, human; conditions: for level of dual-phosphorylated p38α in HL60 cells: 10 μM inhibitor 30 minutes after stimulation with TNFα (40 ng/mL) or LPS; for level of dual-phosphorylated p38α in HL60 cells / single-tyrosine phosphorylated p38α / phospho-tyrosine in HL60 cells (phospho-site specific antibody) / threonine phosphorylation of p38α in HL60 cells (phospho-site specific antibody): western blot; for single-tyrosine phosphorylated p38α / phospho-tyrosine in HL60 cells (phospho-site specific antibody) / threonine phosphorylation of p38α in HL60 cells (phospho-site specific antibody): 10 μM inhibitor after TNFα stimulation; for p38α threonine phosphorylation in cells harvested immediately after addition of inhibitor: cells pretreated with TNFα
Experimental: Cell culture, reagents and antibodies: HL60 cells were maintained in RPM I media supplemented with 2 mM L-glutamine and 10% fetal bovine serum (FBS) at 37° C. in a humidified atmosphere of 5% CO2. HL60-APPM1A were generated. The following antibodies were obtained from Cell Signaling Technologies (Danvers, MA); PPM1A (cat. #3549), p38 (cat. #9212) and 2p-p38 (cat. #4511). The following antibodies were obtained from A B Clonal (Woburn, MA); p38-phospho-Y182 (cat. #AP0057) and p38-phospho-T180 (cat. #AP0056). B-actin antibody (cat. #sc-47778) was obtained from Santa Cruz Biotechnology (Santa Cruz, CA). Recombinant human TNFα (cat. #300-01A) was obtained from Peprotech (Cranbury, NJ). Lipopolysaccharide (LPS) 500× solution (cat. #50-112-9325) was obtained from Invitrogen (Waltham, MA).
Cellular assays: HL60 cells were cultured in 6 well plates and grown until a density of 2 million cells/mL. […] Cells were spun down at 500 xg for 5 minutes, carefully washed with PBS once, and lysed with 50 μL RIPA buffer supplemented with 1:1000 phosphatase inhibitor and 1:500 benzonase. Lysates were centrifuged at 10,000 rpm for 15 minutes. Supernatant was harvested and lysate was either analyzed immediately or flash-frozen and stored at −80° C.
Western blot: Protein concentration of the lysate was determined using Bradford reagent normalized to a standard curve. 40-50 μg total protein per sample was separated on a 10% Tris-tricine polyacrylamide gel and then transferred to a polyvinylidene (PV DF) membrane using the Bio-Rad transfer system. Standard blotting protocol was followed. Primary antibodies (see antibody section) were incubated overnight at 4° C. followed by near-infrared (NIR) labeled secondary antibodies Goat anti-Rabbit IgG (H+L) Cross-Adsorbed Secondary Antibody, DyLight™ 800 (cat #. SA5-10036) or IgG (H+L) Cross-Adsorbed Goat anti-mouse, DyLight™ 680, Invitrogen™ (cat #. 35519) obtained from Invitrogen (Waltham, MA) for 1 hour at room temperature in 2.5% milk in TBST. Blots were washed and imaged on a LI-COR imaging instrument.

[2] = target: T1, p38α (Homo sapiens, UniProt Q16539); test: WIP1 phosphatase assay: dephosphorylation of 32P-labelled dual-phosphorylated p38α bound to inhibitor; type: biochemical; conditions: p38α 0.25 μM, WIP1 2.5 μM, inhibitor 1.25 μM
T1 construct: 6-His (cleaved yes); made in house; host or cells: E. coli BL21 (DE3)
Experimental: (§1) Following initial incubation, excess cold ATP was added for a final concentration of 12 mM and was incubated overnight. Unincorporated nucleotide was removed by buffer exchange using a Zeba™ spin column equilibrated in 50 mM K·HEPES pH7.5, 100 mM NaCl. 6His-MKK6^EE was then removed by Ni-NTA resin equilibrated in 50 mM K·HEPES pH7.5, 100 mM NaCl, 20 mM imidazole. The flow-through fraction from the Ni-NTA resin containing p38-^32P was then exchanged into 50 mM K·HEPES pH7.5, 100 mM NaCl buffer using 3 subsequent Zeba spin columns to remove all unincorporated nucleotide and free phosphate. Labeled p38-^32P was aliquoted and frozen at −80° C. for future use.
WIP1 and PPM1A: All WIP1 phosphatase assays were performed at room temperature in 50 mM K HEPES pH7.5, 0.8 mM CHAPS, 0.05 mg/mL BSA, and 15 mM MnCl2. WIP1 concentration was 2.5 μM, PPM1A concentration was 0.5 μM and p38-^32P was 0.25 μM unless otherwise stated. […] Reactions were stopped with 0.5 MEDTA, pH8.0 and run on PEI-Cellulose TLC plates developed in 1 M LiCl2 and 0.8 M acetic acid and imaged on a Typhoon™ scanner. Phosphatase assays were performed more than three independent times as separate experiments. Data shown in figures is from a single representative experiment, and reported errors are the error from the fit unless indicated otherwise.

[3] = test system: T2, MKK6 (Homo sapiens); test: Kinase assay: phosphorylation of p38α by MKK6; conditions: biochemical assay; 50 μM inhibitor, 25 μM p38
T2 construct: made in house; host or cells: E. coli BL21 (DE3)
Experimental: Kinase assay: All kinase assays were performed at room temperature in 20 mM K HEPES PH7.5, 0.5 mMEDTA, 20 mM MgCl2 and 2 mM DTT. […] MKK6^EE was added to 25 μM p38, 25 μM cold ATP and 1 μCi of γ-^32P ATP. 50 μM p38 inhibitors were added to a final DMSO concentration of 5%. Reactions were stopped with SDS and run on PEI-Cellulose TLC plates run through water then developed in 1 M LiCl2 and 0.8 M acetic acid and imaged on a Typhoon™ scanner.

[4] = target: T3, p38α (T180A) (Homo sapiens, UniProt Q16539, T180A); test: DUSP3 dephosphorylation of single tyrosine phosphorylated p38α (T180A); type: biochemical; conditions: DUSP3 15 μM, p38α T180A 0.25 μM, 5-fold excess inhibitor
T3 construct: 6-His (cleaved yes); made in house; host or cells: E. coli BL21 (DE3)
Experimental: as §1
DUSP3: All DUSP3 phosphatase assays were performed in 50 mM K HEPES pH7.5 and 100 mM NaCl. Reactions were stopped with SDS and run on PEI-Cellulose TLC plates run through water then developed in 1 M LiCl2 and 0.8 M acetic acid and imaged on a Typhoon scanner. Phosphatase assays were performed more than three independent times as separate experiments. Data shown in figures is from a single representative experiment, and reported errors are the error from the fit unless indicated otherwise.
+p38^T180A_32P: Reactions were run at room temperature with 15 μM DUSP3 and 0.25 μM p38^T180A_32.

[5] = target: p38 (Homo sapiens, UniProt Q16539); conditions: initial biochemical kinase screening; cited from earlier work
[6] = test system: MKK6; conditions: previous reports; cited from earlier work
[7] = single turnover, relative to DMSO control

T1 sequence (Q16539 whole entry): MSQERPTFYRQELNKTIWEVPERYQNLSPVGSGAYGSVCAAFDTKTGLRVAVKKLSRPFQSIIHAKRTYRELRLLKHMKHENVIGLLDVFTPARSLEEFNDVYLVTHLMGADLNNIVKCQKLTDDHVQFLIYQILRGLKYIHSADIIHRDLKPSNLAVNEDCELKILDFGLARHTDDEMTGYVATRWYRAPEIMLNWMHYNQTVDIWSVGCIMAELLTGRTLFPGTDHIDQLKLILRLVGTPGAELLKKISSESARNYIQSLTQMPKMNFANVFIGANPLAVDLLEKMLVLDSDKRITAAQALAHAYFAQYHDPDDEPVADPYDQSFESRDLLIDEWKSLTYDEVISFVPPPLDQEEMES
T3 sequence (Q16539 whole entry T180A): as the sequence (Q16539 whole entry) above, with T180A counted along it
T2 sequence (Q16539 whole entry): as the sequence (Q16539 whole entry) above
Sequence of p38 (Q16539 whole entry): as above

Compound | level of dual-phosphorylated p38α in HL60 cells [1] | single-tyrosine phosphorylated p38α / phospho-tyrosine in HL60 cells (phospho-site specific antibody) [1] | threonine phosphorylation of p38α in HL60 cells (phospho-site specific antibody) [1] | p38α threonine phosphorylation in cells harvested immediately after addition of inhibitor [1] | also measured
Cc1c(F)cc(C(=O)NC2CC2)cc1-c1ccc(C(=O)NCC(C)(C)C)cn1 [losmapimod] | caused disappearance | did not accumulate | – | – | –
Cc1ccc(-n2nc(C(C)(C)C)cc2NC(=O)NCc2cc(F)ccc2Oc2ccc3c(cnn3CCO)c2)cc1 [pexmetinib] | disappeared | increase | disappearance | completely disappeared | –
NC(=O)c1ccc2[nH]ccc2c1 [SD-169] | – | – | – | – | effect on WIP1 threonine dephosphorylation of p38α (in words) [2]: no change on phosphatase activity
CC(C)(C)Cn1c(N)nc2ccc(-c3[nH]c(C(C)(C)C)nc3-c3ccc(F)cc3)nc21 [LY2228820] | increased | – | – | – | decrease of the rate of threonine dephosphorylation of p38α by WIP1 [2, 7]: 5 fold
Cc1cn(-c2cc(NC(=O)c3ccc(C)c(Nc4nccc(-c5cccnc5)n4)c3)cc(C(F)(F)F)c2)cn1 [nilotinib] | disappeared | increase | disappearance | completely disappeared | threonine phosphorylation of p38α by MKK6 [3]: did not impact; effect on rate of DUSP3 dephosphorylation of Y182 of p38α (T180A) [4]: no effect; binding of p38 compared to primary target ABL [5]: weak off-target binder; increase of the rate of threonine dephosphorylation of p38α by WIP1 [2, 7]: four-fold
Oc1ccc(-c2nc(-c3ccncc3)c(-c3ccc(F)cc3)[nH]2)cc1 [SB202190] | increased | – | increased | – | effect on rate of DUSP3 dephosphorylation of Y182 of p38α (T180A) [4]: no effect; decrease of the rate of threonine dephosphorylation of p38α by WIP1 [2, 7]: 5 fold
CCc1nc(-c2cccc(C)c2)c(-c2ccnc(NC(=O)c3ccccc3)c2)s1 [TAK-715] | caused disappearance | did not accumulate | – | – | –
O=c1ncn2nc(Sc3ccc(F)cc3F)ccc2c1-c1c(Cl)cccc1Cl [VX-745] | caused disappearance | did not accumulate | – | – | effect on WIP1 threonine dephosphorylation of p38α (in words) [2]: did not affect
Cc1ccc(-n2nc(C(C)(C)C)cc2NC(=O)Nc2ccc(OCCN3CCOCC3)c3ccccc23)cc1 [BIRB 796] | disappeared | increase | disappearance | completely disappeared | MKK6 dual phosphorylation measured by ELISA [6]: block
